In ChEMBL document CHEMBL5352390, “Design, synthesis and biological evaluation of (Quinazoline 4-yloxy)acetamide and (4-oxoquinazoline-3(4H)-yl)acetamide derivatives as inhibitors of Mycobacterium tuberculosis bd oxidase” (2022) one finds MIC data, which are given here for 29 molecules.

This test has as its system Mycobacterium tuberculosis. The test is described as follows: Antimycobacterial activity against Mycobacterium tuberculosis H37Rv harboring qcrB deletion mutant assessed as inhibition of bacterial growth incubated for 7 days by resazurin microplate assay. The test is classed as functional. Conditions: time 7 day. For orientation: Alamar Blue is a resazurin reagent that responds to reducing activity.

Each structure is given as a SMILES string. ≈ marks a conversion by molar mass, not a printed value.

What is called MIC is the least concentration at which growth counts as inhibited. As for `O=C(Cn1cnc2ccccc2c1=O)NC1=C(C(F)(F)F)CCC=C1`, the MIC is >32 µM. The same measure for `O=C(COc1ncnc2ccccc12)NCc1ccc(N2CCN(c3ccc(F)cc3)CC2)cc1`: >32 µM; for `O=C(Cn1cnc2ccccc2c1=O)Nc1ccc(F)cc1`: >32 µM; for `O=C(Cn1cnc2ccccc2c1=O)Nc1ccc(Br)cc1`: >32 µM. On to `O=C(COc1ncnc2ccccc12)Nc1ccc(Cl)cc1`, for which the MIC is 16 µM (≈ 5.02 µg/mL). With `COc1ccccc1NC(=O)Cn1cnc2ccccc2c1=O` the figure was >32 µM. With `O=C(Cn1cnc2ccccc2c1=O)Nc1ccccc1` the figure was >32 µM.

For `O=C(COc1ncnc2ccccc12)NCc1ccccc1`, the MIC was >32 µM. For `O=C(Cn1cnc2ccccc2c1=O)Nc1ccc([N+](=O)[O-])cc1`, the MIC is >32 µM.

For `O=C(COc1ncnc2ccccc12)Nc1ccc(OC(F)(F)F)cc1`, the MIC was >32 µM. With `O=C(Cn1cnc2ccccc2c1=O)Nc1ccc(OC(F)(F)F)cc1` the figure was >32 µM; with `Cc1ccc(NC(=O)Cn2cnc3ccccc3c2=O)cc1`, >32 µM. The same measure for `COc1ccc(N2CCN(c3ccc(CNC(=O)COc4ncnc5ccccc45)cc3)CC2)cc1`: >32 µM.

In the case of `O=C(COc1ncnc2ccccc12)Nc1cccc2ccccc12`, the minimum inhibitory concentration (MIC) was >32 µM. The same measure for `Cc1ccccc1NC(=O)COc1ncnc2ccccc12`: >32 µM; for `COc1ccc(NC(=O)COc2ncnc3ccccc23)cc1`: >32 µM. Turning to `O=C(COc1ncnc2ccccc12)Nc1ccccc1`, the MIC was 8 µM (≈ 2.23 µg/mL). With `O=C(COc1ncnc2ccccc12)NCc1ccc(N2CCN(Cc3ccccc3)CC2)cc1` the figure was >32 µM; with `O=C(COc1ncnc2ccccc12)NCc1ccc(N2CCC(c3ccccc3)CC2)cc1`, >32 µM; with `CSc1ccc(NC(=O)Cn2cnc3ccccc3c2=O)cc1`, >32 µM. The same measure for `O=C(COc1ncnc2ccccc12)Nc1ccc(C(F)(F)F)cc1`: >32 µM. The same measure for `O=C(Cn1cnc2ccccc2c1=O)Nc1ccc(C(F)(F)F)cc1`: >32 µM; for `O=C(COc1ncnc2ccccc12)Nc1ccc(Br)cc1`: >32 µM; for `O=C(COc1ncnc2ccccc12)Nc1ccc(F)cc1`: >32 µM. With `O=C(Cn1cnc2ccccc2c1=O)Nc1ccc(Cl)cc1`, the MIC is >32 µM.

Turning to `COc1ccc(NC(=O)Cn2cnc3ccccc3c2=O)cc1`, the MIC was >32 µM. The same measure for `O=C(COc1ncnc2ccccc12)NCc1ccc(N2CCN(c3ccccc3)CC2)cc1`: >32 µM. The same measure for `COc1ccccc1NC(=O)COc1ncnc2ccccc12`: >32 µM. With `Cc1ccc(NC(=O)COc2ncnc3ccccc23)cc1` the figure was >32 µM.
